The values that follow are results of earlier work, collected in patent US20060110448A1, “Combination of a macrolide and a local anesthetic for the treatment of dermatological diseases” (priority 2003, published 2006).

The data set has as its system rat model of allogeneic kidney transplantation. The conditions noted are these: oral administration, suppression of systemic immune response.

Consider `C=CC[C@@H]1/C=C(\C)C[C@H](C)C[C@H](OC)[C@H]2O[C@@](O)(C(=O)C(=O)N3CCCC[C@H]3C(=O)O[C@H](/C(C)=C/[C@@H]3CC[C@@H](O)[C@H](OC)C3)[C@H](C)[C@@H](O)CC1=O)[C@H](C)C[C@@H]2OC` [tacrolimus], for which the “minimum effective dose (MED)” value is given as 14 mg/kg.
